In ChEMBL document CHEMBL1275563, “Genetic characterization of Vga ABC proteins conferring reduced susceptibility to pleuromutilins in Staphylococcus aureus” (2008):
≈ marks a conversion by molar mass, not a printed value. Numbered stars: 1 amine (or outer) side, 2 acyl side, 3 side chain; on linkers, the order of the positions; unused ones are H or OH. Bridge positions count the residues as written; N and C are the ends. Square brackets hold non-standard residues; d marks the D form. Peptide text beside a SMILES is read from it. * marks the point of attachment. X1 = O=C1C[C@@H](C(=O)[*:2])N([*:1])C[C@H]1CS[C@@H]1CN2CCC1CC2; NMePhe(4-NMe2) = CN[C@@H](Cc1ccc(N(C)C)cc1)C(=O)O; Picolinoyl(3-OH) = O=C(c1ncccc1O)*; Phg = N[C@H](C(=O)O)c1ccccc1; dAbu = CC[C@@H](N)C(=O)O

What was measured:
Staphylococcus aureus [1] = experiment: microbe, parasite or virus in culture; conditions: ATCC 29213
Description: Antimicrobial activity against Staphylococcus aureus ATCC 29213

Staphylococcus aureus [2] = experiment: Antimicrobial activity against Staphylococcus aureus RN1024; assay type: functional
Staphylococcus aureus [3] = experiment: Antimicrobial activity against Staphylococcus aureus RN4220 harboring plasmid CU1
Staphylococcus aureus [4] = experiment: Antimicrobial activity against Staphylococcus aureus RN4220 harboring vgaAv positive plasmid CU1
Staphylococcus aureus [5] = experiment: Antimicrobial activity against Staphylococcus aureus RN4220 harboring plasmid VGA
Staphylococcus aureus [6] = experiment: Antimicrobial activity against Staphylococcus aureus RN4220; assay type: functional
Staphylococcus aureus [7] = experiment: Antimicrobial activity against Staphylococcus aureus RN1024-tms; assay type: functional
Staphylococcus aureus [8] = experiment: Antimicrobial activity against Staphylococcus aureus IV20204009 harboring vgaAv positive Tn5406 transposon; assay type: functional
Staphylococcus aureus [9] = experiment: Antimicrobial activity against Staphylococcus aureus IHMA127277 harboring vgaAv positive Tn5406 transposon; assay type: functional
Staphylococcus aureus [10] = experiment: Antimicrobial activity against Staphylococcus aureus IV20217008 harboring vgaAv positive Tn5406 transposon; assay type: functional
Staphylococcus aureus [11] = experiment: Antimicrobial activity against Staphylococcus aureus IV20222009 harboring vgaAv positive Tn5406 transposon; assay type: functional
Staphylococcus aureus [12] = experiment: Antimicrobial activity against Staphylococcus aureus IV20217033 harboring vgaA positive plasmid VGA; assay type: functional
Staphylococcus aureus [13] = experiment: Antimicrobial activity against Staphylococcus aureus IV20205004 harboring vgaAv positive Tn5406 transposon; assay type: functional

Compound | MIC (Staphylococcus aureus [1]) | MIC (Staphylococcus aureus [2]) | MIC (Staphylococcus aureus [3]) | MIC (Staphylococcus aureus [4]) | MIC (Staphylococcus aureus [5]) | MIC (Staphylococcus aureus [6]) | MIC (Staphylococcus aureus [7]) | MIC (Staphylococcus aureus [8]) | MIC (Staphylococcus aureus [9]) | MIC (Staphylococcus aureus [10]) | MIC (Staphylococcus aureus [11]) | MIC (Staphylococcus aureus [12]) | MIC (Staphylococcus aureus [13])
C[C@H]1COc2c(N3CCN(C)CC3)c(F)cc3c(=O)c(C(=O)O)cn1c23.C[C@H]1COc2c(N3CCN(C)CC3)c(F)cc3c(=O)c(C(=O)O)cn1c23.O [LEVOFLOXACIN] | 0.125 µg/mL | 16 µg/mL | 0.125 µg/mL | 0.125 µg/mL | 0.125 µg/mL | 0.125 µg/mL | 32 µg/mL | – | – | – | – | – | –
CCC[C@@H]1C[C@@H](C(=O)N[C@@H]([C@H]2O[C@H](SC)[C@H](O)[C@@H](O)[C@H]2O)[C@H](C)Cl)N(C)C1 [CLINDAMYCIN] | 0.125 µg/mL (≈ 0.294 µM) | 0.25 µg/mL (≈ 0.588 µM) | 0.06 µg/mL (≈ 0.141 µM) | 2 µg/mL (≈ 4.71 µM) | 4 µg/mL (≈ 9.41 µM) | 0.06 µg/mL (≈ 0.141 µM) | 0.06 µg/mL (≈ 0.141 µM) | – | – | – | – | – | –
CCC[C@@H]1C[C@@H](C(=O)N[C@@H]([C@H]2O[C@H](SC)[C@H](O)[C@@H](O)[C@H]2O)[C@@H](C)O)N(C)C1 [LINCOMYCIN] | 2 µg/mL (≈ 4.92 µM) | 8 µg/mL (≈ 19.7 µM) | 0.5 µg/mL (≈ 1.23 µM) | 32 µg/mL (≈ 78.7 µM) | 32 µg/mL (≈ 78.7 µM) | 0.5 µg/mL (≈ 1.23 µM) | 1 µg/mL (≈ 2.46 µM) | – | – | – | – | – | –
CCN(CC)CCS(=O)(=O)[C@@H]1CCN2C(=O)c3coc(n3)CC(=O)C[C@H](O)/C=C(C)/C=C/CNC(=O)/C=C/[C@@H](C)[C@@H](C(C)C)OC(=O)[C@@H]12 [DALFOPRISTIN] | 8 µg/mL (≈ 11.6 µM) | 64 µg/mL (≈ 92.6 µM) | 4 µg/mL (≈ 5.79 µM) | 64 µg/mL (≈ 92.6 µM) | 32 µg/mL (≈ 46.3 µM) | 4 µg/mL (≈ 5.79 µM) | 8 µg/mL (≈ 11.6 µM) | – | – | – | – | – | –
CC[C@H]1NC(=O)[C@@H](NC(=O)c2ncccc2O)[C@@H](C)OC(=O)[C@H](c2ccccc2)NC(=O)[C@@H]2CC(=O)[C@H](CS[C@@H]3CN4CCC3CC4)CN2C(=O)[C@H](Cc2ccc(N(C)C)cc2)N(C)C(=O)[C@@H]2CCCN2C1=O [QUINUPRISTIN] ({Picolinoyl(3-OH)}-T[dAbu]P[NMePhe(4-NMe2)][X1][Phg]; ester 1-C) | 4 µg/mL (≈ 3.91 µM) | 4 µg/mL (≈ 3.91 µM) | 4 µg/mL (≈ 3.91 µM) | 1 µg/mL (≈ 0.978 µM) | 4 µg/mL (≈ 3.91 µM) | 4 µg/mL (≈ 3.91 µM) | 4 µg/mL (≈ 3.91 µM) | – | – | – | – | – | –
C/C(=C\C(=O)OCCCCCCCCC(=O)O)C[C@@H]1OC[C@H](C[C@@H]2O[C@H]2[C@@H](C)[C@H](C)O)[C@@H](O)[C@H]1O [MUPIROCIN] | 0.25 µg/mL (≈ 0.499 µM) | 0.25 µg/mL (≈ 0.499 µM) | – | – | – | ≤ 0.06 µg/mL | 0.25 µg/mL (≈ 0.499 µM) | – | – | – | – | – | –
COc1cc(Cc2cnc(N)nc2N)cc(OC)c1OC [TRIMETHOPRIM] | 2 µg/mL (≈ 6.89 µM) | 2 µg/mL (≈ 6.89 µM) | 2 µg/mL (≈ 6.89 µM) | 2 µg/mL (≈ 6.89 µM) | 2 µg/mL (≈ 6.89 µM) | 2 µg/mL (≈ 6.89 µM) | 2 µg/mL (≈ 6.89 µM) | – | – | – | – | – | –
O=C(N[C@H](CO)[C@H](O)c1ccc([N+](=O)[O-])cc1)C(Cl)Cl [CHLORAMPHENICOL] | 16 µg/mL (≈ 49.5 µM) | 8 µg/mL (≈ 24.8 µM) | > 64 µg/mL | > 64 µg/mL | 8 µg/mL (≈ 24.8 µM) | 8 µg/mL (≈ 24.8 µM) | 8 µg/mL (≈ 24.8 µM) | – | – | – | – | – | –
CO[C@H]1/C=C/O[C@@]2(C)Oc3c(C)c(O)c4c(O)c(c(/C=N/N5CCN(C)CC5)c(O)c4c3C2=O)NC(=O)/C(C)=C\C=C\[C@H](C)[C@H](O)[C@@H](C)[C@@H](O)[C@@H](C)[C@H](OC(C)=O)[C@@H]1C [RIFAMPIN] | < 0.06 µg/mL | > 64 µg/mL | – | – | – | ≤ 0.06 µg/mL | > 64 µg/mL | – | – | – | – | – | –
CN(C)[C@@H]1C(O)=C(C(N)=O)C(=O)[C@@]2(O)C(O)=C3C(=O)c4c(O)cccc4[C@@](C)(O)[C@H]3C[C@@H]12 [TETRACYCLINE] | 0.5 µg/mL (≈ 1.13 µM) | 64 µg/mL (≈ 144 µM) | 0.25 µg/mL (≈ 0.563 µM) | 0.125 µg/mL (≈ 0.281 µM) | – | 0.25 µg/mL (≈ 0.563 µM) | 64 µg/mL (≈ 144 µM) | – | – | – | – | – | –
C=C[C@]1(C)C[C@@H](OC(=O)CS[C@@H]2C[C@H]3CC[C@@H](C2)N3C)[C@]2(C)[C@H](C)CC[C@]3(CCC(=O)[C@H]32)[C@@H](C)[C@@H]1O [RETAPAMULIN] | ≤ 0.06 µg/mL | 2 µg/mL (≈ 3.86 µM) | – | 32 µg/mL (≈ 61.8 µM) | 32 µg/mL (≈ 61.8 µM) | ≤ 0.06 µg/mL | ≤ 0.06 µg/mL | 2 µg/mL (≈ 3.86 µM) | 2 µg/mL (≈ 3.86 µM) | 4 µg/mL (≈ 7.73 µM) | 4 µg/mL (≈ 7.73 µM) | 64 µg/mL (≈ 124 µM) | 2 µg/mL (≈ 3.86 µM)
C=C[C@]1(C)C[C@@H](OC(=O)CSCCN(CC)CC)[C@]2(C)[C@H](C)CC[C@]3(CCC(=O)[C@H]32)[C@@H](C)[C@@H]1O [TIAMULIN] | 1 µg/mL (≈ 2.03 µM) | 16 µg/mL (≈ 32.4 µM) | 0.25 µg/mL (≈ 0.506 µM) | > 64 µg/mL | > 64 µg/mL | 0.5 µg/mL (≈ 1.01 µM) | 0.5 µg/mL (≈ 1.01 µM) | 32 µg/mL (≈ 64.8 µM) | – | 32 µg/mL (≈ 64.8 µM) | 16 µg/mL (≈ 32.4 µM) | > 64 µg/mL | 16 µg/mL (≈ 32.4 µM)
CC(=O)NC[C@H]1CN(c2ccc(N3CCOCC3)c(F)c2)C(=O)O1 [LINEZOLID] | – | – | – | 1 µg/mL (≈ 2.96 µM) | – | – | – | – | – | – | – | – | –
CC[C@H]1OC(=O)[C@H](C)[C@@H](O[C@H]2C[C@@](C)(OC)[C@@H](O)[C@H](C)O2)[C@H](C)[C@@H](O[C@@H]2O[C@H](C)C[C@H](N(C)C)[C@H]2O)[C@](C)(O)C[C@@H](C)C(=O)[C@H](C)[C@@H](O)[C@]1(C)O [ERYTHROMYCIN] | 0.5 µg/mL (≈ 0.681 µM) | 0.25 µg/mL (≈ 0.341 µM) | 0.25 µg/mL (≈ 0.341 µM) | 0.125 µg/mL (≈ 0.17 µM) | 0.25 µg/mL (≈ 0.341 µM) | 0.25 µg/mL (≈ 0.341 µM) | 0.25 µg/mL (≈ 0.341 µM) | – | – | – | – | – | –
GENTAMICIN | – | > 64 µg/mL | – | – | – | 1 µg/mL | > 64 µg/mL | – | – | – | – | – | –
